Here are results for 16 molecules from patent US11999727B2 (Tango Therapeutics, Inc., priority 2020, dated 2024).

Each structure is given as a SMILES string.

In experiment [1] the target is T1, PRMT5 (Homo sapiens, UniProt O14744).
T1 construct: purchased Viva (custom protein)
The experiment in a line: PRMT5 biochemical IC50 assay with SAM as cofactor. The note with it: PRMT5, SAM as cofactor; read-out: SAM IC50.

Experiment [2] addresses T1, PRMT5. As to the kind of experiment: PRMT5 biochemical IC50 assay with no cofactor. The note with it: PRMT5, no cofactor. The source says: Table 1 indicates IC50 values (μM) against PRMT5 for exemplary compounds in the presence of SAM as cofactor, with no cofactor, and with MTA as cofactor, respectively (columns 4-6). […] Ki values can be calculated from the IC50 values as described in the Examples section. As detailed in the Examples section, for the assay performed in the presence of SAM, IC50=Ki×1.5 (Ki=IC50/1.5).

Experiment [3] deals with T1, PRMT5. As to the kind of experiment: PRMT5 biochemical IC50 assay with MTA as cofactor. The note with it: PRMT5, MTA as cofactor; read-out: MTA IC50.
Experiment [4] has as its system HAP1 MTAP-intact cell line. As to the kind of experiment: SDMA in-cell western assay, HAP1 MTAP-intact. The class given is cell-based. The note with it: Homo sapiens, HAP1, SDMA in-cell western, HAP1 MTAP-intact; read-out: MTAP HAP1 intact IC50. The essentials:
(§1)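 Readout: in-cell western detection of SDMA. Cells: HAP1 expressing endogenous MTAP and an MTAP-null HAP1 counterpart. Output: IC50.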

Experiment [5] concerns HAP1 MTAP-deleted cell line. As to the kind of experiment: SDMA in-cell western assay, HAP1 MTAP-deleted. The class given is cell-based. The note with it: for IC50: Homo sapiens, HAP1, SDMA in-cell western, HAP1 MTAP-deleted; for MTAP intact/deleted ratio: SDMA in-cell western. Put shortly:
as §1

Experiment [6] deals with HAP1 MTAP-deleted cell line. As to the kind of experiment: Viability assay, MTAP-deleted cell line. The class given is cell-based. The note with it: Homo sapiens, read-out: HAP1 MTAP deleted viability. The source says:
Table 1 additionally indicates IC50 values in a viability assay for the MTAP-deleted cell line (column 10), indicating the effect of treatment with compound on cell survival.

The mark [7] stands for this setting: read-out: HAP1 MTAP deleted IC50.
[8] abbreviates: IC50 ratio HAP1 MTAP-intact / HAP1 MTAP-deleted.
The mark [9] stands for this setting: HAP1, viability assay, MTAP-deleted cell line.
Where [10] appears, read: read-out: HAP 1 MTAP deleted IC50.
The mark [11] stands for this setting: HAP1, viability IC50, MTAP-deleted cell line.
The mark [12] stands for this setting: read-out: No Cofactor/ rel IC50.
Setting [13] is: HAP1, viability, HAP1 MTAP-deleted cell line.
[14] abbreviates: IC50 ratio HAP1 MTAP-intact vs HAP1 MTAP-deleted.

T1 sequence (O14744 whole entry): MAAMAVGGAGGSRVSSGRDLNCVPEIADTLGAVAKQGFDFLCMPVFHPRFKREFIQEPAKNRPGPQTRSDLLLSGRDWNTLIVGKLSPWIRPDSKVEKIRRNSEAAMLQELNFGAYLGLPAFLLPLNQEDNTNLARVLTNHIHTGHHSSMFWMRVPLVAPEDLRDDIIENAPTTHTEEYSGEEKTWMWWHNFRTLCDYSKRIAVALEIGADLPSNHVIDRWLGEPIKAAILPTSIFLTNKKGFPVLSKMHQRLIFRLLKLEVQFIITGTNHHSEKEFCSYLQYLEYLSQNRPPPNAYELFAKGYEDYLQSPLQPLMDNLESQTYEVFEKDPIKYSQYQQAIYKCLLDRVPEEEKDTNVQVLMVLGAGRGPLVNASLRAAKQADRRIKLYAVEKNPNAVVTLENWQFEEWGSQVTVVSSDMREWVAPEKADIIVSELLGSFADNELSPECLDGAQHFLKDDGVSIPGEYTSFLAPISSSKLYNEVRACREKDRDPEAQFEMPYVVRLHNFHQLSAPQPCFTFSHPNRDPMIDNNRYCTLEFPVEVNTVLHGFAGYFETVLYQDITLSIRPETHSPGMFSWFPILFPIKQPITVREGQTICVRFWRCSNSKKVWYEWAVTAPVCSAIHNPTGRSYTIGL
T1 sequence (Q9BQA1 whole entry partner): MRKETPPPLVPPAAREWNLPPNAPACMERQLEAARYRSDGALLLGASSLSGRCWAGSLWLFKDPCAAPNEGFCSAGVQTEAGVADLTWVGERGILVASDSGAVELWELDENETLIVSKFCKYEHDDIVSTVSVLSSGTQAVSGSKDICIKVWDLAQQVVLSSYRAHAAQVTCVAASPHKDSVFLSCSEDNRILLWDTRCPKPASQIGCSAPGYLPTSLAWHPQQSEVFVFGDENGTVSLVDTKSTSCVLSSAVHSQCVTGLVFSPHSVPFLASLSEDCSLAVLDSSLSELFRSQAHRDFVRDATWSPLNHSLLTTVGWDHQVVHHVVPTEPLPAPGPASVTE

For the molecule `C[C@@H]1CC[C@@H](c2ccc(CC3CC3)cc2)N(C(=O)C(=O)Nc2cncc(C(N)=O)c2)C1` (racemic) [Compound 273, rac-5-{2-[(2R,5S)-2-[4-(Cyclopropylmethyl)phenyl]-5-methylpiperidin-1-yl]-2-oxoacetamido}pyridine-3-carboxamide], the IC50 in experiment [1] was 50 to 500 nM; in experiment [2] (read-out: No Cofactor/rel IC50), 50 to 500 nM; in experiment [3], < 50 nM; in experiment [4], > 1000 nM; in experiment [5] (setting [7]), 100 to 1000 nM; in experiment [6] (setting [9]) it was 1000 to 10000 nM. Further, the MTAP intact/deleted ratio result in experiment [5] (setting [8]) is on record as “A (an IC50 ratio greater than or equal to 10 fold)”.
Take `Cc1cc(NC(=O)C(=O)N2C[C@@H](C)CC[C@@H]2c2ccc3[nH]ncc3c2)cnc1C` (single isomer, unassigned) [Compound 620]: the IC50 in experiment [1] was 50 to 500 nM; in experiment [2] (read-out: No Cofactor/rel IC50) it was < 50 nM; in experiment [3], < 50 nM; in experiment [4], 100 to 1000 nM; in experiment [5] (setting [10]), < 100 nM; in experiment [6] (setting [11]), < 1000 nM. Also, the MTAP intact/deleted ratio entry in experiment [5] (setting [8]) was “A (an IC50 ratio greater than or equal to 10 fold)”.
In the case of `Cc1cc(NC(=O)C(=O)N2C[C@@H](C)CC[C@@H]2c2ccc3c(c2)CCCN3)cnc1N` (single isomer, unassigned) [Compound 503], the IC50 in experiment [1] is > 500 nM; in experiment [2] (read-out: No Cofactor/rel IC50), > 500 nM; in experiment [3], > 500 nM; in experiment [4], > 1000 nM; in experiment [5] (setting [7]) it was > 1000 nM; in experiment [6] (setting [9]), > 10000 nM. For the same molecule, the MTAP intact/deleted ratio result in experiment [5] (setting [8]) is given as “C (an IC50 ratio of less than 3 fold)”.
For `Cc1cc(NC(=O)C(=O)N2C[C@@H](C)CC[C@@H]2c2ccc3sc(C4COC4)nc3c2)cnc1N` [Compound 1266, N-(6-amino-5-methylpyridin-3-yl)-2-((2R,5S)-5-methyl-2-(2-(oxetan-3-yl)benzo[d]thiazol-5-yl)piperidin-1-yl)-2-oxoacetamide], the IC50 in experiment [1] is 50 to 500 nM; in experiment [2] (setting [12]), < 50 nM; in experiment [3], < 50 nM; in experiment [4] it was < 100 nM; in experiment [5] (setting [10]), < 100 nM; in experiment [6] (setting [13]), < 1000 nM. Also, in experiment [5] (setting [8]), the “MTAP intact/deleted ratio” value is reported as “A (an IC50 ratio greater than or equal to 10 fold)”.
Consider `COc1ncc(NC(=O)C(=O)N2C[C@@H](C)CC[C@@H]2c2ccc3sc(C4(CN(C)C)CC4)nc3c2)cc1C(N)=O` (single isomer, unassigned) [Compound 1109], for which the IC50 was < 50 nM in experiment [1]; < 50 nM in experiment [2] (read-out: No Cofactor/rel IC50); < 50 nM in experiment [3]; 100 to 1000 nM in experiment [4]; < 100 nM in experiment [5] (setting [7]); < 1000 nM in experiment [6] (setting [9]). Further, in experiment [5] (setting [14]), the MTAP intact/deleted ratio entry is listed as “A (an IC50 ratio greater than or equal to 10 fold)”.
Take `CCc1cc(NC(=O)C(=O)N2C[C@@H](C)CC[C@@H]2c2ccc(N3CCN(C)[C@@H](C)C3)nc2)cnc1N` (single isomer, unassigned) [Compound 1289]: the IC50 in experiment [1] was 50 to 500 nM; in experiment [2] (setting [12]) it was < 50 nM; in experiment [3] it was < 50 nM; in experiment [4] it was 100 to 1000 nM; in experiment [5] (setting [10]) it was < 100 nM; in experiment [6] (setting [13]) it was < 1000 nM. In addition, the “MTAP intact/deleted ratio” value in experiment [5] (setting [8]) is “A (an IC50 ratio greater than or equal to 10 fold)”.
On to `C[C@@H]1CC[C@@H](c2ccncc2)N(C(=O)C(=O)Nc2cncc(C(N)=O)c2)C1` (single isomer, unassigned) [Compound 544, 5-(2-(5-methyl-2-(pyridin-4-yl)piperidin-1-yl)-2-oxoacetamido)nicotinamide], for which the IC50 in experiment [1] is > 500 nM; in experiment [2] (read-out: No Cofactor/rel IC50) it was > 500 nM; in experiment [3] it was > 500 nM; in experiment [4], > 1000 nM; in experiment [5] (setting [10]), > 1000 nM; in experiment [6] (setting [11]), > 10000 nM. Also, in experiment [5] (setting [8]), the MTAP intact/deleted ratio result was “C (an IC50 ratio of less than 3 fold)”.
In the case of `Cc1cc(NC(=O)C(=O)N2C[C@@H](C)CC[C@@H]2c2cc(Cl)cc(Cl)c2)cnc1N` (single isomer, unassigned) [Compound 660], the IC50 in experiment [1] was > 500 nM; in experiment [2] (read-out: No Cofactor/rel IC50), > 500 nM; in experiment [3] it was 50 to 500 nM; in experiment [4], > 1000 nM; in experiment [5] (setting [10]), > 1000 nM; in experiment [6] (setting [11]), > 10000 nM. Besides, the MTAP intact/deleted ratio entry in experiment [5] (setting [8]) is reported as “B (an IC50 ratio greater than or equal to 3 fold but lower than 10 fold)”.
For `COc1ncc(NC(=O)C(=O)N2C[C@H](C)CC[C@H]2c2ccc(NC(C)=O)cc2)cc1C(N)=O` (single isomer, unassigned) [Compound 760], the IC50 in experiment [1] was 50 to 500 nM; in experiment [2] (read-out: No Cofactor/rel IC50), < 50 nM; in experiment [3], < 50 nM; in experiment [4] it was > 1000 nM; in experiment [5] (setting [7]), < 100 nM; in experiment [6] (HAP1, viability assay, HAP1 MTAP-deleted) it was < 1000 nM. In addition, the MTAP intact/deleted ratio result in experiment [5] (setting [8]) is recorded as “A (an IC50 ratio greater than or equal to 10 fold)”.
With `Cc1cc(NC(=O)C(=O)N2C[C@@H](C)CC[C@@H]2c2cc(F)c3[nH]ncc3c2)cnc1N` (single isomer, unassigned) [Compound 1350], the IC50 in experiment [1] was 50 to 500 nM; in experiment [2] (setting [12]), < 50 nM; in experiment [3] it was < 50 nM; in experiment [4], 100 to 1000 nM; in experiment [5] (setting [10]), < 100 nM; in experiment [6] (setting [13]), < 1000 nM. Besides, the “MTAP intact/deleted ratio” value in experiment [5] (setting [8]) is listed as “A (an IC50 ratio greater than or equal to 10 fold)”.
`Cc1cc(NC(=O)C(=O)N2C[C@H](C)CC[C@H]2[C@@H]2CCC[C@H](O)C2)cnc1N` (single isomer, unassigned) [Compound 567]: the IC50 in experiment [1] was > 500 nM; in experiment [2] (read-out: No Cofactor/rel IC50) it was > 500 nM; in experiment [3] it was > 500 nM; in experiment [4], > 1000 nM; in experiment [5] (setting [10]) it was > 1000 nM; in experiment [6] (setting [11]) it was > 10000 nM. Moreover, the MTAP intact/deleted ratio entry in experiment [5] (setting [8]) is reported as “C (an IC50 ratio of less than 3 fold)”.
In the case of `C[C@H]1CC[C@H]([C@@H]2CCC[C@@H](O)C2)N(C(=O)C(=O)Nc2cncc(C(N)=O)c2)C1` (single isomer, unassigned) [Compound 520], the IC50 in experiment [1] is 50 to 500 nM; in experiment [2] (read-out: No Cofactor/rel IC50) it was 50 to 500 nM; in experiment [3] it was 50 to 500 nM; in experiment [4], > 1000 nM; in experiment [5] (setting [7]) it was 100 to 1000 nM; in experiment [6] (setting [9]), > 10000 nM. In addition, the MTAP intact/deleted ratio entry in experiment [5] (setting [8]) is listed as “A (an IC50 ratio greater than or equal to 10 fold)”.
Turning to `CCc1cc(NC(=O)C(=O)N2C[C@@H](C)CC[C@@H]2c2cccc(OC[C@@H]3CCN(C)C3)c2)cnc1N` [Compound 1178, N-(6-amino-5-ethylpyridin-3-yl)-2-((2R,5S)-5-methyl-2-(3-(((R)-1-methylpyrrolidin-3-yl)methoxy)phenyl)piperidin-1-yl)-2-oxoacetamide], the IC50 in experiment [1] is < 50 nM; in experiment [2] (read-out: No Cofactor/rel IC50), < 50 nM; in experiment [3] it was < 50 nM; in experiment [4] it was < 100 nM; in experiment [5] (setting [7]), < 100 nM; in experiment [6] (setting [9]), < 1000 nM. Also, the MTAP intact/deleted ratio result in experiment [5] (setting [14]) is “A (an IC50 ratio greater than or equal to 10 fold)”.
`Cc1cncc(NC(=O)C(=O)N2CCCCC2c2ccccc2)c1N` (stereo not shown) [Compound 184, N-(4-amino-5-methylpyridin-3-yl)-2-oxo-2-(2-phenylpiperidin-1-yl)acetamide]: the IC50 in experiment [1] was > 500 nM; in experiment [2] (read-out: No Cofactor/rel IC50), > 500 nM; in experiment [3], 50 to 500 nM; in experiment [4], > 1000 nM; in experiment [5] (setting [7]) it was > 1000 nM; in experiment [6] (setting [9]) it was > 10000 nM. In addition, the MTAP intact/deleted ratio result in experiment [5] (setting [8]) is reported as “C (an IC50 ratio of less than 3 fold)”.
Turning to `C[C@@H]1CC[C@@](C)(c2ccccc2)N(C(=O)C(=O)Nc2cncc(C(N)=O)c2)C1` (racemic) [Compound 521, 5-(2-(2,5-dimethyl-2-phenylpiperidin-1-yl)-2-oxoacetamido)nicotinamide], the IC50 in experiment [1] was > 500 nM; in experiment [2] (read-out: No Cofactor/rel IC50) it was > 500 nM; in experiment [3], 50 to 500 nM; in experiment [4], > 1000 nM; in experiment [5] (setting [7]), > 1000 nM; in experiment [6] (setting [9]) it was > 10000 nM. The MTAP intact/deleted ratio result in experiment [5] (setting [8]) is recorded as “B (an IC50 ratio greater than or equal to 3 fold but lower than 10 fold)”.
Turning to `C[C@H]1CC[C@H](c2cnc3[nH]ncc3c2)N(C(=O)C(=O)Nc2cncc(C(N)=O)c2)C1` (single isomer, unassigned) [Compound 574], the IC50 in experiment [1] is 50 to 500 nM; in experiment [2] (read-out: No Cofactor/rel IC50), 50 to 500 nM; in experiment [3], 50 to 500 nM; in experiment [4] it was > 1000 nM; in experiment [5] (setting [10]) it was > 1000 nM; in experiment [6] (setting [11]), > 10000 nM. The MTAP intact/deleted ratio result in experiment [5] (setting [8]) is reported as “B (an IC50 ratio greater than or equal to 3 fold but lower than 10 fold)”.
